Experimental data: PMC7179673, “A New Series of Carlactonoic Acid Based Strigolactone Analogs for Fundamental and Applied Research” (Frontiers in Plant Science, 2020)
Where two headings read alike, the source gives them in different places.

Columns and labels:
[1] = molecular target: T1, ShHTL7 (Striga hermonthica Hyposensitive to Light) (Striga hermonthica, UniProt A0A0M3PNA2); test: competitive YLG (Yoshimulactone Green) hydrolysis assay with purified protein; format: biochemical
T1 sequence (A0A0M3PNA2 1-271): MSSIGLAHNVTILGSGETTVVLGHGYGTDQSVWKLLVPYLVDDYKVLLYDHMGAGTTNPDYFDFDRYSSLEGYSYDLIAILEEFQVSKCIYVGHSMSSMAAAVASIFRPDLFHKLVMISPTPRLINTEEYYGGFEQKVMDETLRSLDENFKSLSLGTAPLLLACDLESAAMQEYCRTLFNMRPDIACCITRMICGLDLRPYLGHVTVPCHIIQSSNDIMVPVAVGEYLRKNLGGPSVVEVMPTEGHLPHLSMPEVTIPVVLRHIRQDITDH

OsD14 = molecular target: T2, OsD14 (Oryza sativa, UniProt Q10QA5); test: as above; format: biochemical
T2 construct: gene D14
T2 sequence (Q10QA5 1-318): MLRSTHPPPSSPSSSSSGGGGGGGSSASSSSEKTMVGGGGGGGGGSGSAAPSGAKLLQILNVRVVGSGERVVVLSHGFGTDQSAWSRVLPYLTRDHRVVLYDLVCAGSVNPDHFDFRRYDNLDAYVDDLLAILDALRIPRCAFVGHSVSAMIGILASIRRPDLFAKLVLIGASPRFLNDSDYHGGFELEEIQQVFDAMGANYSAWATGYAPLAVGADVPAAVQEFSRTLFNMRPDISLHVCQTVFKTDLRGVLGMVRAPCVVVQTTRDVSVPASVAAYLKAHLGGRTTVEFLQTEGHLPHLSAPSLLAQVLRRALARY

IC50 ([1]; read-out: IC50)	SMILES	IC50 [1]	IC50 (OsD14)
–	CC1=C[C@H](O/C=C2/C(=O)O[C@@H]3c4ccccc4C[C@H]23)OC1=O (racemic) [GR24, rac-GR24]	980 ± 260 nM	1040 ± 90 nM
4370 ± 210 nM	CC1=CC(O/C=C(\C(=O)N(C)C)c2ccccc2)OC1=O (stereo not drawn) [MP16, (Z)-N,N-Dimethyl-3-((4-methyl-5-oxo-2,5-dihydrofuran-2-yl)oxy)-2-phenylacrylamide]	–	–
